Results from PMC5217690 (The Journal of Biological Chemistry, 2016).

Assays:
[1] = molecular target: T1, TrmDEC (Escherichia coli, UniProt P0A873); experiment: ITC; format: binding
T1 construct: gene trmD; full-length, N-terminal His tag (pET28b), expressed in E. coli BL21(DE3), tag kept
T1 sequence (P0A873 2-255): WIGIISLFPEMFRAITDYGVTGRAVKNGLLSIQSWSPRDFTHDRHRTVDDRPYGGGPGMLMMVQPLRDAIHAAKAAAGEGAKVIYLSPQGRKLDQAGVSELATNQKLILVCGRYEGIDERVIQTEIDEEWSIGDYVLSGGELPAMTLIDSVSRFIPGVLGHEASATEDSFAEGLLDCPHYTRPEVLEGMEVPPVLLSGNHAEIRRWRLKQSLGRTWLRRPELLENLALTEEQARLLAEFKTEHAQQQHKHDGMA

[2] = molecular target: T2, TrmDSA (Staphylococcus aureus, UniProt Q2FHJ8); experiment: ITC; format: binding
T2 construct: gene trmD; full-length, N-terminal His tag (pET28b), expressed in E. coli BL21(DE3), tag kept
T2 sequence (Q2FHJ8 2-245): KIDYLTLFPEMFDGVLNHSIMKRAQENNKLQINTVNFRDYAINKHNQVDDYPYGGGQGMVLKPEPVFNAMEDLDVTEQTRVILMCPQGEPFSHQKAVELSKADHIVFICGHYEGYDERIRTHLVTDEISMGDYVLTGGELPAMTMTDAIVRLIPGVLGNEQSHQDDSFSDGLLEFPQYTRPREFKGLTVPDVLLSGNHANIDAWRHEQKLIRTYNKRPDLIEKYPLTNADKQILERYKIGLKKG

C[S+](CC[C@H](N)C(=O)O)C[C@H]1O[C@@H](n2cnc3c(N)ncnc32)[C@H](O)[C@@H]1O (some centres unmarked) [AdoMet]
Kd [1]: 21.5 µM
Kd [2]: 121 µM
